Measurements reported in patent US6734168B2, “Endothelial monocyte activating polypeptide II: a mediator which activates host response” (The Trustees of Columbia University in the City of New York, priority 1993, dated 2004).

How the values were obtained:
human umbilical vein ECs = test: EC tissue factor activity, Factor VIIa-dependent Factor Xa formation; type: cell-based
Description: Tissue factor activity of monolayers of ECs and MPs was determined (7) after incubation with EMAP II-derived peptides at 37° C. for 4-12 hrs by washing cultures with HEPES (10 MM; pH 7.4), NaCl (137 mM), KCl (4 mM), CaCl2 (3 mM), glucose (10 mM), bovine serum albumin (0.5 mg/ml), and addition of 0.5 ml of the same buffer along with purified human Factor VIIa (1 nM) and Factor X (200 nM) for 45 min at 37° C. Aliquots (0.05 ml) of the reaction mixture (one per well) were withdrawn at 15 min intervals, added to a buffer containing Tris (50 mM; pH 7.9), NaCl (175 mM), EDTA (5 mM) and bovine serum albumin (0.5 mg/ml; 0.05 ml), and the chromogenic substrate Spectrozyme Factor Xa (American Diagnositca, Inc., Greenwich Conn.; 0.01 ml; 2 mM). Cleavage of the substrate was monitored by the change in absorbance at 405 nm (BioKinetics Reader, Winooski, Vt.). Factor Xa concentration was determined by comparison with a standard curve generated with known amounts of purified human Factor Xa. Human, plasma-derived Factors VIIa and X were purified to homogeneity as described (31).
In Vitro Assays of EC, MP, and PMN Functions-Cell-associated tissue factor was assayed by its functional activity, using purified coagulation proteins, and tissue factor mRNA was detected by PCR. […] The concentration of Factor Xa was determined based on a standard curve generated with purified Factor Xa. […]

human MPs = test: Radioligand binding of 125I-[…] to MPs; settings: excess / increasing concentrations of unlabelled competitor
Description: Radioligand binding studies were performed on human MPs plated in 96-well plates (5-6×10^4 cells/well). Cells were washed twice with Hanks balanced salt solution, and then Dulbecco's Modified Eagle Medium containing HEPES (25 mM; pH 7.4), penicillin/streptomycin (50 U/ml; 50 μg/ml), and bovine serum albumin-fatty acid free (0.5%; Sigma) were added (0.1 ml/well). Cultures were incubated at 4° C. for 2 hrs with ^125I-[…] alone or in the presence of unlabelled peptide/protein. Each well was washed four times over a period of 20 sec, and cell-associated radioactivity was eluted by an acidic buffer (HCl, 0.1 M, pH 2; NaCl, 0.1 M) at 4° C. for 5 min. During the elution period, there was no detachment of cells from the growth substrate. The conditions for incubation and washing used in the binding studies shown in FIG. 3 (2 hrs at 4° C.) were […] to allow binding of ^125I-[…] to reach an apparent maximum, even at the lowest tracer concentrations, and to remove unbound material by washing quickly so that <10% of the cell-bound radioactivity dissociated.

human PMNs = test: Release of peroxidase generating activity (myeloperoxidase) from PMNs; type: cell-based; settings: 60 min at 37° C.
Description: Release of peroxidase generating activity from PMNs (myeloperoxidase) was determined by oxidation of the peroxidase substrate 3,3′,5,5′-tetramethylbenzidine (TMB; Sigma), monitored at 620 nm, as described (35). In brief, PMNs (3×10^6 cells/ml; 0.05 ml) were incubated for 60 min at 37° C. with RPMI 1640 containing fetal calf serum (1%) alone or in the presence of phorbol ester (phorbol 12-myristate 13-acetate; Sigma) or EMAP II-derived peptides. TMP and hydrogen peroxide were added for 1 min at room temperature, and the reaction was stopped with sodium azide and acetic acid. Peroxidase activity, assessed by oxidation of TMB, was determined spectrophotometrically and is reported as percent total peroxidase activity (100% is the activity observed with that number of PMNs following 60 min exposure to phorbol ester, 10 μM). A standard curve was generated by assaying peroxidase activity from different numbers of PMNs treated with phorbol ester (10 μM) under these conditions, and peroxidase activity of PMN/EMAP II peptide incubation mixtures was determined by comparison with the linear portion of the standard curve (35).
Release of Peroxidase Generating Activity from PMNs (myeloperoxidase)—Release was determined by a previously described assay (36) which monitors oxidation of the substrate 3,3′,5,5′-tetramethylbenzidine (TMB; Sigma). […]

ASRLDLRIGRIVTAKY [residues #6-20 from EMAP II, Cys to Arg substitution at position #15, and a C-terminal Tyr]
Induction of tissue factor activity in ECs (Factor VIIa-dependent Factor X activation) (human umbilical vein ECs): did not demonstrate induction of tissue factor activity
Competition for binding of 125I-RIGRIVTAKY to MPs by unlabelled peptide/protein (human MPs): inhibition
Release of PMN myeloperoxidase activity (peroxidase generation assay) (human PMNs): released PMN myeloperoxidase activity
